Assays:
giant foxtail [1] = experiment: Test A pre-/postemergence greenhouse test; format: in vivo, Setaria faberi; settings: for Foxtail, Giant plant response rating: 0 to 100 scale
In short: (§1)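 Pots of loam–sand soil sown with the test species are sprayed preemergence on the soil surface; emerged seedlings (1–2 leaves, 2–10 cm) are sprayed postemergence at the same time. The vehicle is a non-phytotoxic solvent mixture with surfactant. Injury is scored visually after ~10 d in greenhouse.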

woolly cupgrass = experiment: Test C pre-/postemergence test; format: in vivo, Eriochloa villosa; settings: Preemergence
In short: (§2)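 Test chemicals were formulated with surfactant in a non-phytotoxic solvent and sprayed both on freshly planted seeds (preemergence) and on 1- to 4-leaf plants of 2–18 cm (postemergence). Flooded-paddy pots received compound directly into 3 cm of standing water, maintained for the test.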

cocklebur = experiment: Test C pre-/postemergence test; format: in vivo, Xanthium strumarium
In short: as §2

wild oat = experiment: Test C pre-/postemergence test; format: in vivo, Avena fatua; settings: Preemergence
In short: as §2

wheat [2] = experiment: Test A pre-/postemergence greenhouse test; format: in vivo, Triticum aestivum; settings: for Wheat plant response rating: 0 to 100 scale
In short: as §1

lambsquarters = experiment: Test C pre-/postemergence test; format: in vivo, Chenopodium album; settings: Preemergence
In short: as §2

eastern black nightshade = experiment: Test C pre-/postemergence test; format: in vivo, Solanum ptycanthum; settings: Preemergence
In short: as §2

blackgrass = experiment: Test C pre-/postemergence test; format: in vivo, Alopecurus myosuroides
In short: as §2

wheat [3] = experiment: Test C pre-/postemergence test; format: in vivo, Triticum aestivum; settings: Preemergence
In short: as §2

[4] = tested on: common (oilseed) sunflower; experiment: Test C pre-/postemergence test; format: in vivo, Helianthus annuus; settings: Preemergence
In short: as §2

morningglory = experiment: Test A pre-/postemergence greenhouse test; format: in vivo, Ipomoea spp.; settings: for Morningglory plant response rating: 0 to 100 scale
In short: as §1

velvetleaf = experiment: Test C pre-/postemergence test; format: in vivo, Abutilon theophrasti; settings: Preemergence
In short: as §2

redroot pigweed = experiment: Test A pre-/postemergence greenhouse test; format: in vivo, Amaranthus retroflexus; settings: for Pigweed plant response rating: 0 to 100 scale
In short: as §1

giant foxtail [5] = experiment: Test C pre-/postemergence test; format: in vivo, Setaria faberii; settings: Preemergence
In short: as §2

Surinam grass = experiment: Test C pre-/postemergence test; format: in vivo, Brachiaria decumbens; settings: Preemergence
In short: as §2

downy brome = experiment: Test C pre-/postemergence test; format: in vivo, Bromus tectorum
In short: as §2

common ragweed = experiment: Test C pre-/postemergence test; format: in vivo, Ambrosia elation; settings: Preemergence, 31 g ai/ha; scale 0 to 100 (0 no effect, 100 complete control)
In short: as §2

kochia = experiment: Test C pre-/postemergence test; format: in vivo, Kochia scoparia; settings: Preemergence
In short: as §2

catchweed bedstraw = experiment: Test C pre-/postemergence test; format: in vivo, Galium aparine; settings: Preemergence
In short: as §2

[6] = Postemergence, 125 g ai/ha, 0 is no effect, 100 is complete control
[7] = Postemergence, 500 g ai/ha, 0 is no effect, 100 is complete control
[8] = Preemergence, 125 g ai/ha, 0 no effect, 100 complete control
[9] = Preemergence, 500 g ai/ha, 0 to 100 scale where 0 is no effect and 100 is complete control
[10] = 31 g ai/ha, scale 0 to 100 (0 no effect, 100 complete control)
[11] = 62 g ai/ha, Preemergence, scale 0 to 100
[12] = Preemergence, 31 g ai/ha, scale 0 to 100 (0 no effect, 100 complete control)
[13] = preemergence, 125 g ai/ha, scale 0 (no effect) to 100 (complete control)

Cc1cc[n+]([O-])c([S+]([O-])Cc2c(C(F)(F)F)nn(C)c2Cl)c1 (racemic) [Compound 20]
Foxtail, Giant plant response rating (giant foxtail [1]; [6]): 50
Foxtail, Giant plant response rating (giant foxtail [1]; [7]): 80
Foxtail, Giant plant response rating (giant foxtail [1]; [8]): 80
Plant response rating, Foxtail, Giant (giant foxtail [1]; [9]): 100
Cupgrass, Woolly plant response rating (woolly cupgrass; 62 g ai/ha, scale 0 to 100): 70
Plant response rating, Cupgrass, Woolly (woolly cupgrass; [10]): 0
Plant response rating (0 to 100), Cupgrass, Woolly (woolly cupgrass; 250 g ai/ha): 100
Cocklebur plant response rating (cocklebur; [11]): 0
Plant response rating, Cocklebur (cocklebur; [12]): 0
Plant response rating (0 to 100), Cocklebur (cocklebur; Preemergence, 250 g ai/ha): 20
Cocklebur plant response rating (cocklebur; [13]): 0
Oat, Wild plant response rating (wild oat; 62 g ai/ha, scale 0 to 100): 10
Plant response rating, Oat, Wild (wild oat; [10]): 0
Wheat plant response rating (wheat [2]; [6]): 0
Wheat plant response rating (wheat [2]; [7]): 60
Wheat plant response rating (wheat [2]; [8]): 30
Plant response rating, Wheat (wheat [2]; [9]): 80
Lambsquarters plant response rating (lambsquarters; 62 g ai/ha, scale 0 to 100): 100
Plant response rating, Lambsquarters (lambsquarters; [10]): 90
Nightshade plant response rating (eastern black nightshade; 62 g ai/ha, scale 0 to 100): 85
Plant response rating, Nightshade (eastern black nightshade; [10]): 80
Blackgrass plant response rating (blackgrass; [11]): 98
Plant response rating, Blackgrass (blackgrass; [12]): 70
Plant response rating (0 to 100), Blackgrass (blackgrass; Preemergence, 250 g ai/ha): 100
Blackgrass plant response rating (blackgrass; [13]): 100
Wheat plant response rating (wheat [3]; 62 g ai/ha, scale 0 to 100): 70
Plant response rating, Wheat (wheat [3]; [10]): 0
Sunflower plant response rating ([4]; 62 g ai/ha, scale 0 to 100): 0
Plant response rating, Sunflower [4, 10]: 0
Morningglory plant response rating (morningglory; [6]): 40
Morningglory plant response rating (morningglory; [7]): 60
Morningglory plant response rating (morningglory; [8]): 70
Plant response rating, Morningglory (morningglory; [9]): 80
Velvetleaf plant response rating (velvetleaf; 62 g ai/ha, scale 0 to 100): 5
Plant response rating, Velvetleaf (velvetleaf; [10]): 0
Pigweed plant response rating (redroot pigweed; [6]): 40
Pigweed plant response rating (redroot pigweed; [7]): 70
Pigweed plant response rating (redroot pigweed; [8]): 90
Plant response rating, Pigweed (redroot pigweed; [9]): 100
Foxtail, Giant plant response rating (giant foxtail [5]; 62 g ai/ha, scale 0 to 100): 98
Plant response rating, Foxtail, Giant (giant foxtail [5]; [10]): 85
Plant response rating (0 to 100), Foxtail, Giant (giant foxtail [5]; 250 g ai/ha): 100
Surinam Grass plant response rating (Surinam grass; 62 g ai/ha, scale 0 to 100): 70
Plant response rating, Surinam Grass (Surinam grass; [10]): 0
Bromegrass, Downy plant response rating (downy brome; [11]): 0
Plant response rating, Bromegrass, Downy (downy brome; [12]): 0
Plant response rating (0 to 100), Bromegrass, Downy (downy brome; Preemergence, 250 g ai/ha): 70
Bromegrass, Downy plant response rating (downy brome; [13]): 70
Plant response rating, Ragweed (common ragweed): 0
Kochia plant response rating (kochia; 62 g ai/ha, scale 0 to 100): 100
Plant response rating, Kochia (kochia; [10]): 0
Galium plant response rating (catchweed bedstraw; 62 g ai/ha, scale 0 to 100): 85
Plant response rating, Galium (catchweed bedstraw; [10]): 80
Plant response rating (0 to 100), Galium (catchweed bedstraw; 250 g ai/ha): 100
